Activity calls are given as the source filed them. The calls are words filed in the database; no cut-off is given here.
Assays:
[1] = tested on: U-251; experiment: Antiproliferative activity against human U-251 assessed as cell viability incubated for 48 hrs by MTT assay; assay type: functional, cell-based; conditions: U-251, 48 h
[2] = tested on: U-87 MG; experiment: Antiproliferative activity against human U-87 MG assessed as cell viability incubated for 48 hrs by MTT assay; assay type: functional, cell-based, U-87MG ATCC
[3] = target: T1, Focal adhesion kinase 1 (Homo sapiens, UniProt Q05397); experiment: Inhibition of FAK (unknown origin) at 10 nM relative to control
[4] = Cytotoxicity against human LO2 assessed as cell viability incubated for 48 hrs by MTT assay; assay type: toxicity, cell-based, L02; conditions: LO2 cells
[5] = Cytotoxicity against human 2BS assessed as cell viability incubated for 48 hrs by MTT assay; assay type: toxicity, cell-based; conditions: 2BS cells
[6] = Distribution coefficient, logD of compound in n-Octanol/water at pH 7.4; assay type: physicochemical
[7] = tested on: U-87 MG; experiment: Induction of DNA damage in human U-87 MG cells assessed as comet tail moment at 0.1 to 2 uM incubated for 2.5 to 3 hrs by comet assay; assay type: functional; conditions: time 2.5-3 hrs
[8] = tested on: U-87 MG; experiment: Inhibition of colony formation in human U-87 MG cells at 0.005 uM incubated for 14 days and subsequent media replacement with compound for every 3 days by crystal violet staining based analysis; assay type: functional, cell-based; conditions: U-87MG ATCC, time 14.0 day
[9] = tested on: U-87 MG; experiment: Inhibition of colony formation in human U-87 MG cells at 0.005 uM incubated for 14 days and subsequent media replacement with compound for every 3 days in presence of Chlorambucil by crystal violet staining based analysis; assay type: functional, cell-based; conditions: U-87MG ATCC, time 14.0 day
[10] = tested on: U-87 MG; experiment: Antiproliferative activity against human U-87 MG assessed as inhibition of cell growth at 0.025 to 0.1 uM by clonogenic assay relative to control; assay type: functional, U-87MG ATCC; conditions: dose 0.025-0.1 µM
[11] = tested on: U-87 MG; experiment: Antiproliferative activity against human U-87 MG assessed as inhibition of cell growth at 0.025 to 0.1 uM in presence of Chlorambucil by clonogenic assay relative to control; assay type: functional, U-87MG ATCC; conditions: dose 0.025-0.1 µM
[12] = tested on: U-87 MG; experiment: Antiproliferative activity against human U-87 MG assessed as inhibition of cell growth at 0.005 uM by clonogenic assay relative to control; assay type: functional, U-87MG ATCC
[13] = tested on: U-87 MG; experiment: Antiproliferative activity against human U-87 MG assessed as inhibition of cell growth at 0.005 uM in presence of Chlorambucil by clonogenic assay relative to control; assay type: functional, U-87MG ATCC
[14] = tested on: U-87 MG; experiment: Inhibition of cell migration in human U-87 MG cells assessed as […] in migration distance at 0.1 to 1 uM incubated for 24 to 48 hrs by wound healing assay; assay type: functional, cell-based; conditions: U-87MG ATCC, dose 0.1-1 µM, time lower 24.0 hrs, time upper […]
[15] = tested on: U-87 MG; experiment: Inhibition of cell migration in human U-87 MG cells assessed as […] at 0.1 to 1 uM by wound healing assay; assay type: functional, cell-based; conditions: U-87MG ATCC, dose 0.1-1 µM, time lower 24.0 hrs, time upper […]
[16] = target: T1, Focal adhesion kinase 1; experiment: Inhibition of FAK phosphorylation in human U-87 MG cells at 0.05 to 0.4 uM incubated for 24 hrs by Western blot analysis; assay type: cell-based; conditions: dose 0.05-0.4 µM
[17] = tested on: U-87 MG; experiment: Inhibition of AKT phosphorylation in human U-87 MG cells at 0.05 to 0.4 uM incubated for 24 hrs by Western blot analysis; assay type: cell-based; conditions: dose 0.05-0.4 µM
[18] = tested on: U-87 MG; experiment: Inhibition of ERK1/2 phosphorylation in human U-87 MG cells at 0.05 to 0.4 uM incubated for 24 hrs by Western blot analysis; assay type: cell-based; conditions: dose 0.05-0.4 µM
[19] = tested on: U-87 MG; experiment: Induction of apoptosis in human U-87 MG cells assessed as viable cells at 2 uM measured upto 24 hrs by Annexin V-FITC/PI staining based flow cytometry analysis (reference value: 98.4%); assay type: functional, U-87MG ATCC; conditions: read-out: Activity
[20] = tested on: U-87 MG; experiment: Induction of apoptosis in human U-87 MG cells assessed as early apoptotic cells at 2 uM measured upto 24 hrs by Annexin V-FITC/PI staining based flow cytometry analysis (reference value: 0.45%); assay type: functional, U-87MG ATCC
[21] = tested on: U-87 MG; experiment: Induction of apoptosis in human U-87 MG cells assessed as late apoptotic cells at 2 uM measured upto 24 hrs by Annexin V-FITC/PI staining based flow cytometry analysis (reference value: 0.54%); assay type: functional, U-87MG ATCC
[22] = tested on: U-87 MG; experiment: Induction of apoptosis in human U-87 MG cells assessed as necrotic cells at 2 uM measured upto 24 hrs by Annexin V-FITC/PI staining based flow cytometry analysis (reference value: 0.62%); assay type: functional, U-87MG ATCC
[23] = tested on: U-87 MG; experiment: Induction of apoptosis in human U-87 MG cells assessed as viable cells at 4 uM measured upto 24 hrs by Annexin V-FITC/PI staining based flow cytometry analysis (reference value: 98.4%); assay type: functional, U-87MG ATCC; conditions: read-out: Activity
[24] = tested on: U-87 MG; experiment: Induction of apoptosis in human U-87 MG cells assessed as early apoptotic cells at 4 uM measured upto 24 hrs by Annexin V-FITC/PI staining based flow cytometry analysis (reference value: 0.45%); assay type: functional, U-87MG ATCC
[25] = tested on: U-87 MG; experiment: Induction of apoptosis in human U-87 MG cells assessed as late apoptotic cells at 4 uM measured upto 24 hrs by Annexin V-FITC/PI staining based flow cytometry analysis (reference value: 0.54%); assay type: functional, U-87MG ATCC
[26] = tested on: U-87 MG; experiment: Induction of apoptosis in human U-87 MG cells assessed as necrotic cells at 4 uM measured upto 24 hrs by Annexin V-FITC/PI staining based flow cytometry analysis (reference value: 0.62%); assay type: functional, U-87MG ATCC
[27] = tested on: U-87 MG; experiment: Induction of apoptosis in human U-87 MG cells assessed as viable cells at 8 uM measured upto 24 hrs by Annexin V-FITC/PI staining based flow cytometry analysis (reference value: 98.4%); assay type: functional, U-87MG ATCC; conditions: read-out: Activity
[28] = tested on: U-87 MG; experiment: Induction of apoptosis in human U-87 MG cells assessed as early apoptotic cells at 8 uM measured upto 24 hrs by Annexin V-FITC/PI staining based flow cytometry analysis (reference value: 0.45%); assay type: functional, U-87MG ATCC
[29] = tested on: U-87 MG; experiment: Induction of apoptosis in human U-87 MG cells assessed as late apoptotic cells at 8 uM measured upto 24 hrs by Annexin V-FITC/PI staining based flow cytometry analysis (reference value: 0.54%); assay type: functional, U-87MG ATCC
[30] = tested on: U-87 MG; experiment: Induction of apoptosis in human U-87 MG cells assessed as necrotic cells at 8 uM measured upto 24 hrs by Annexin V-FITC/PI staining based flow cytometry analysis (reference value: 0.62%); assay type: functional, U-87MG ATCC
[31] = tested on: U-87 MG; experiment: Induction of apoptosis in human U-87 MG cells assessed as […] in cleaved caspase-3 level at 0.05 to 0.8 uM incubated for 24 hrs by Western blot analysis; assay type: functional, cell-based; conditions: U-87MG ATCC, dose 0.05-0.8 µM
[32] = tested on: U-87 MG; experiment: Induction of apoptosis in human U-87 MG cells assessed as […] in Bcl-xL level at 0.05 to 0.8 uM incubated for 24 hrs by Western blot analysis; assay type: functional, cell-based; conditions: U-87MG ATCC, dose 0.05-0.8 µM
[33] = tested on: U-87 MG; experiment: Induction of cell cycle arrest in human U-87 MG cells assessed as accumulation of cells at G0/G1 phase at 2 uM by propidium Iodide staining based flow cytometry analysis (reference value: 80.68%); assay type: functional, U-87MG ATCC
[34] = tested on: U-87 MG; experiment: Induction of cell cycle arrest in human U-87 MG cells assessed as accumulation of cells at G2M phase at 2 uM by propidium Iodide staining based flow cytometry analysis (reference value: 9.73%); assay type: functional, U-87MG ATCC
[35] = tested on: U-87 MG; experiment: Induction of cell cycle arrest in human U-87 MG cells assessed as accumulation of cells at […] at 2 uM by propidium Iodide staining based flow cytometry analysis (reference value: 1.67%); assay type: functional, U-87MG ATCC
[36] = tested on: U-87 MG; experiment: Induction of cell cycle arrest in human U-87 MG cells assessed as accumulation of cells at S phase at 2 uM by propidium Iodide staining based flow cytometry analysis (reference value: 9.59%); assay type: functional, U-87MG ATCC
[37] = tested on: U-87 MG; experiment: Induction of cell cycle arrest in human U-87 MG cells assessed as accumulation of cells at G0/G1 phase at 4 uM by propidium Iodide staining based flow cytometry analysis (reference value: 80.68%); assay type: functional, U-87MG ATCC
[38] = tested on: U-87 MG; experiment: Induction of cell cycle arrest in human U-87 MG cells assessed as accumulation of cells at G2M phase at 4 uM by propidium Iodide staining based flow cytometry analysis (reference value: 9.73%); assay type: functional, U-87MG ATCC
[39] = tested on: U-87 MG; experiment: Induction of cell cycle arrest in human U-87 MG cells assessed as accumulation of cells at […] at 4 uM by propidium Iodide staining based flow cytometry analysis (reference value: 1.67%); assay type: functional, U-87MG ATCC
[40] = tested on: U-87 MG; experiment: Induction of cell cycle arrest in human U-87 MG cells assessed as accumulation of cells at S phase at 4 uM by propidium Iodide staining based flow cytometry analysis (reference value: 9.59%); assay type: functional, U-87MG ATCC
[41] = tested on: U-87 MG; experiment: Induction of cell cycle arrest in human U-87 MG cells assessed as accumulation of cells at G0/G1 phase at 8 uM by propidium Iodide staining based flow cytometry analysis (reference value: 80.68%); assay type: functional, U-87MG ATCC
[42] = tested on: U-87 MG; experiment: Induction of cell cycle arrest in human U-87 MG cells assessed as accumulation of cells at G2M phase at 8 uM by propidium Iodide staining based flow cytometry analysis (reference value: 9.73%); assay type: functional, U-87MG ATCC
[43] = tested on: U-87 MG; experiment: Induction of cell cycle arrest in human U-87 MG cells assessed as accumulation of cells at […] at 8 uM by propidium Iodide staining based flow cytometry analysis (reference value: 1.67%); assay type: functional, U-87MG ATCC
[44] = tested on: U-87 MG; experiment: Induction of cell cycle arrest in human U-87 MG cells assessed as accumulation of cells at S phase at 8 uM by propidium Iodide staining based flow cytometry analysis (reference value: 9.59%); assay type: functional, U-87MG ATCC
[45] = tested on: U-87 MG; experiment: Antitumor activity against human U-87 MG cells xenografted in BALB/c mouse assessed as inhibition of tumor growth at 25 mg/kg, ip administered once daily for 15 days; assay type: functional, U-87MG ATCC; conditions: 360 h, time 15 day, read-out: TGI
[46] = Toxicity in BALB/c mouse implanted with human U-87 MG cells assessed as lung damage at 25 mg/kg, ip administered once daily for 15 days by H and E staining based analysis; assay type: organism-based; conditions: in vivo, 360 h, time 15 day
[47] = Toxicity in BALB/c mouse implanted with human U-87 MG cells assessed as spleen damage at 25 mg/kg, ip administered once daily for 15 days by H and E staining based analysis; assay type: organism-based; conditions: in vivo, 360 h, time 15 day

T1 sequence (Q05397 2-1052 limits assumed): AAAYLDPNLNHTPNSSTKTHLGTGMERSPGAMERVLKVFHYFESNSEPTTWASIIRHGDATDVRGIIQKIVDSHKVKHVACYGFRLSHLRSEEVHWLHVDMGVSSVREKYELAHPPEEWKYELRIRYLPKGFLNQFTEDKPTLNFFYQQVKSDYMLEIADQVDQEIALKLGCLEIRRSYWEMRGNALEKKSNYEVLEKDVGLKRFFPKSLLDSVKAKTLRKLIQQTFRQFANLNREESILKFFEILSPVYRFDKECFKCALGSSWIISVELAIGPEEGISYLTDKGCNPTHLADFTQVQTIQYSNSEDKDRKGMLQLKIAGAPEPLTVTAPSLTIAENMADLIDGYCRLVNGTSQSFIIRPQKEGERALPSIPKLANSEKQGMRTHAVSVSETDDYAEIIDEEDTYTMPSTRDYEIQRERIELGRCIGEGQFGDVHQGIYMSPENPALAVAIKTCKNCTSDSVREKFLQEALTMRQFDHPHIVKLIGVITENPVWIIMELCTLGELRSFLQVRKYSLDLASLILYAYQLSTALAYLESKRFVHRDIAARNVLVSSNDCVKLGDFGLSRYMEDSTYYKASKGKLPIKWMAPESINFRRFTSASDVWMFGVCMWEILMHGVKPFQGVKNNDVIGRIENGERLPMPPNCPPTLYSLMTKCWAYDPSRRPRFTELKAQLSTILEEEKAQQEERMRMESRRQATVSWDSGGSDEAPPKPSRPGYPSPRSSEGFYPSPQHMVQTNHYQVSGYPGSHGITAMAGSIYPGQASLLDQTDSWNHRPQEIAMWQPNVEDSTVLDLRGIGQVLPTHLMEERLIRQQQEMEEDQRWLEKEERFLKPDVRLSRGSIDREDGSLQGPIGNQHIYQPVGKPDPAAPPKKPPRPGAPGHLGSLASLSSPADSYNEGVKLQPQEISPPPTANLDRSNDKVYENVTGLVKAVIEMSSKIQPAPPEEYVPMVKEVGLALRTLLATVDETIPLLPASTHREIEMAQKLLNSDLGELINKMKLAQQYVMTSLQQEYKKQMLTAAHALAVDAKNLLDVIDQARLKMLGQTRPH

## CNC(=O)c1ccccc1Nc1nc(Nc2ccc(N3CCOCC3)cc2OC)ncc1Cl
[1]
  IC50: 5.84 µM
[2]
  IC50: 2.85 µM
[3]
  inhibition: 78.6%
[4]
  IC50 at 48 h: 4.14 µM
[5]
  IC50 at 48 h: 42.8 µM
[6]
  logD: 3.49
[7]; U-87MG ATCC
  Activity: inactive
[8]
  inhibition: inactive
[9]
  inhibition: inactive
[10]
  inhibition (INH): 60%
[11]
  inhibition (INH): 61%
[12]
  inhibition at 0.005 µM: ~8%
[13]
  inhibition at 0.005 µM: 12%
[14]
  inhibition: Active
[15]
  inhibition: Time-dependent-effect
[16]
  inhibition: inactive
[17]
  inhibition: inactive
[18]
  inhibition: inactive
[19]
  viability at 2 µM: 84.3%
[20]
  Activity: 2.78%
[21]
  Activity: 9.29%
[22]
  Activity: 3.64%
[23]
  viability at 4 µM: 78.2%
[24]
  Activity: 11%
[25]
  Activity: 4.35%
[26]
  Activity: 6.39%
[27]
  viability at 8 µM: 61.2%
[28]
  Activity: 26.2%
[29]
  Activity: 12.3%
[30]
  Activity: 0.31%
[31]
  Activity: Active
[32]
  Activity: Active
[33]
  Activity: 72.55%
[34]
  Activity: 14.62%
[35]
  Activity: 1.75%
[36]
  Activity: 12.83%
[37]
  Activity: 56.37%
[38]
  Activity: 23.91%
[39]
  Activity: 1.81%
[40]
  Activity: 19.73%
[41]
  Activity: 33.93%
[42]
  Activity: 62.41%
[43]
  Activity: 1.84%
[44]
  Activity: 3.66%

## Cn1nnc2c(C(N)=O)ncn2c1=O [TEMOZOLOMIDE]
[7]
  Activity: 11.6
[45]
  inhibition in vivo at 25 mg/kg: 31.4%
[46]
  Activity: Non-toxic
[47]
  Activity: Non-toxic

From ChEMBL document CHEMBL6153079, “Discovery of noncovalent diaminopyrimidine-based Inhibitors for glioblastoma via a dual FAK/DNA targeting strategy” (Eur J Med Chem, 2025)
